Laboratory results from ChEMBL document CHEMBL1139649, “Hetaryl imidazoles: a novel dual inhibitors of VEGF receptors I and II” (Bioorg Med Chem Lett, 2006).

What was measured:
[1] = target: RAC-alpha serine/threonine-protein kinase (Homo sapiens) (UniProt P31749); assay: […] against PKB/Akt at 10 uM by HTRF method
[2] = target: cAMP-dependent protein kinase (PKA) (Homo sapiens) (UniProt P22694+P17612+P22612); assay: Inhibition against PKA at 10 uM by HTRF method; assay type: protein assay; set-up: scale not given: the % may be the effect or the level left
[3] = target: T1, Vascular endothelial growth factor receptor 2 (Homo sapiens, UniProt P35968); assay: Inhibition of VEGFR2 in 293 adenovirus transfected kidney cells by cell-based ELISA assay
[4] = target: Insulin-like growth factor 1 receptor (Homo sapiens) (UniProt P08069); assay: […] against IGF1R at 10 uM by HTRF method
[5] = target: Cyclin-dependent kinase 2 (Homo sapiens) (UniProt P24941); assay: […] against Cdk2 at 10 uM by HTRF method
[6] = target: Receptor-type tyrosine-protein kinase FLT3 (Homo sapiens) (UniProt P36888); assay: Inhibition of Flt3 at 10 uM by HTRF method; set-up: scale not given: the % may be the effect or the level left
[7] = target: Epidermal growth factor receptor (Homo sapiens) (UniProt P00533); assay: […] against ErbB1 at 10 uM by HTRF method
[8] = Solubility in water; assay type: physicochemical
[9] = target: Bcr/Abl fusion protein (Homo sapiens) (UniProt P00519+P11274); assay: Inhibition of bcr-Abl at 10 uM by HTRF method; assay type: protein assay; set-up: scale not given: the % may be the effect or the level left
[10] = target: T1, Vascular endothelial growth factor receptor 2; assay: Inhibition of VEGFR2 by enzymatic assay
[11] = target: Hepatocyte growth factor receptor (Homo sapiens) (UniProt P08581); assay: Percent inhibition against c-Met at 10 uM by HTRF method; set-up: scale not given: the % may be the effect or the level left
[12] = target: Fibroblast growth factor receptor 1 (Homo sapiens) (UniProt P11362); assay: Percent inhibition against FGFR1 at 10 uM by HTRF method; set-up: scale not given: the % may be the effect or the level left
[13] = target: Cyclin-dependent kinase 5 (Homo sapiens) (UniProt Q00535); assay: […] against Cdk5 at 10 uM by HTRF method
[14] = target: Receptor tyrosine-protein kinase erbB-2 (Homo sapiens) (UniProt P04626); assay: […] against ErbB2 at 10 uM by HTRF method
[15] = target: Glycogen synthase kinase-3 beta (Homo sapiens) (UniProt P49841); assay: Inhibition against GSK3-beta at 10 uM by HTRF method; set-up: scale not given: the % may be the effect or the level left
[16] = target: T2, Ephrin type-B receptor 4 (Homo sapiens) (UniProt P54760); assay: Percent inhibition against EphB4 at 10 uM by HTRF method; set-up: scale not given: the % may be the effect or the level left
T2 sequence (whole entry): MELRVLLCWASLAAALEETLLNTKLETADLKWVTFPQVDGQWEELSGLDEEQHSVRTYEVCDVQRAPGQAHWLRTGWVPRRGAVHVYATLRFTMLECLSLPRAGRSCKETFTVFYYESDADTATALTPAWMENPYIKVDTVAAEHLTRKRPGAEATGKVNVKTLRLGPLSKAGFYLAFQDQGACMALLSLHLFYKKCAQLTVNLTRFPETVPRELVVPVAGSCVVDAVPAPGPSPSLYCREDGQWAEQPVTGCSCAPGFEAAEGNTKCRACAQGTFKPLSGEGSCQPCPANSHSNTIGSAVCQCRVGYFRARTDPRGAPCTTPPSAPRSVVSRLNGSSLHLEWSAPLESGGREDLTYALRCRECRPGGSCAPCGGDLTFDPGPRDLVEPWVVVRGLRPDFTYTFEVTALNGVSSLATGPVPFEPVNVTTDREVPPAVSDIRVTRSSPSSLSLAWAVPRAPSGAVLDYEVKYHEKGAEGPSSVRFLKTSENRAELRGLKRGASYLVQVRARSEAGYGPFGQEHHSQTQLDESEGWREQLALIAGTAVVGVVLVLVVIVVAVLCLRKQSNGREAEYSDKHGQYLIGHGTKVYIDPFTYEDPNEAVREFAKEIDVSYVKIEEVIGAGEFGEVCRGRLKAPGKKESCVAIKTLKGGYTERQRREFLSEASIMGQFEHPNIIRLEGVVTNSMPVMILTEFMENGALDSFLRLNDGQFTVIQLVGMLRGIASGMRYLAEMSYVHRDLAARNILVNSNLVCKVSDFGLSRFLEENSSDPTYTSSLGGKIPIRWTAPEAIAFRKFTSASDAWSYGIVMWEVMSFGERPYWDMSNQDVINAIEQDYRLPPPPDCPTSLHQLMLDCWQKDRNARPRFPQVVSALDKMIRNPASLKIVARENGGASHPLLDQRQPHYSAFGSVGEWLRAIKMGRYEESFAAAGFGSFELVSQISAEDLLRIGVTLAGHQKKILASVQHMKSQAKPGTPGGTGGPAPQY

[17] = target: Vascular endothelial growth factor receptor 1 (Homo sapiens, UniProt P17948); assay: Inhibition of VEGFR1 by enzymatic assay

Sequence of RAC-alpha serine/threonine-protein kinase (Homo sapiens) (P31749 whole entry): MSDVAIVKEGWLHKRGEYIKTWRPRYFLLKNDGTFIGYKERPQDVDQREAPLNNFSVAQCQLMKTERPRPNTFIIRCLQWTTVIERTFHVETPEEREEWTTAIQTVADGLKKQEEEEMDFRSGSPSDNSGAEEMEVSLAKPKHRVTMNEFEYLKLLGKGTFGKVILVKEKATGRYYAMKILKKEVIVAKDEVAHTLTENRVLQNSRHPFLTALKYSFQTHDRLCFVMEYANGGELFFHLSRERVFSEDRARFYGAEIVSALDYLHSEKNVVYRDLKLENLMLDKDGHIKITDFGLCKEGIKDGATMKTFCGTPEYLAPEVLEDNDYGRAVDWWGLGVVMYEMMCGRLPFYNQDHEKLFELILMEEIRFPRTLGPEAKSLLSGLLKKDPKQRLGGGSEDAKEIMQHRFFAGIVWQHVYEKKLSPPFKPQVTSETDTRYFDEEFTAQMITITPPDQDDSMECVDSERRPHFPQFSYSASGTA
T1 sequence (P35968 whole entry): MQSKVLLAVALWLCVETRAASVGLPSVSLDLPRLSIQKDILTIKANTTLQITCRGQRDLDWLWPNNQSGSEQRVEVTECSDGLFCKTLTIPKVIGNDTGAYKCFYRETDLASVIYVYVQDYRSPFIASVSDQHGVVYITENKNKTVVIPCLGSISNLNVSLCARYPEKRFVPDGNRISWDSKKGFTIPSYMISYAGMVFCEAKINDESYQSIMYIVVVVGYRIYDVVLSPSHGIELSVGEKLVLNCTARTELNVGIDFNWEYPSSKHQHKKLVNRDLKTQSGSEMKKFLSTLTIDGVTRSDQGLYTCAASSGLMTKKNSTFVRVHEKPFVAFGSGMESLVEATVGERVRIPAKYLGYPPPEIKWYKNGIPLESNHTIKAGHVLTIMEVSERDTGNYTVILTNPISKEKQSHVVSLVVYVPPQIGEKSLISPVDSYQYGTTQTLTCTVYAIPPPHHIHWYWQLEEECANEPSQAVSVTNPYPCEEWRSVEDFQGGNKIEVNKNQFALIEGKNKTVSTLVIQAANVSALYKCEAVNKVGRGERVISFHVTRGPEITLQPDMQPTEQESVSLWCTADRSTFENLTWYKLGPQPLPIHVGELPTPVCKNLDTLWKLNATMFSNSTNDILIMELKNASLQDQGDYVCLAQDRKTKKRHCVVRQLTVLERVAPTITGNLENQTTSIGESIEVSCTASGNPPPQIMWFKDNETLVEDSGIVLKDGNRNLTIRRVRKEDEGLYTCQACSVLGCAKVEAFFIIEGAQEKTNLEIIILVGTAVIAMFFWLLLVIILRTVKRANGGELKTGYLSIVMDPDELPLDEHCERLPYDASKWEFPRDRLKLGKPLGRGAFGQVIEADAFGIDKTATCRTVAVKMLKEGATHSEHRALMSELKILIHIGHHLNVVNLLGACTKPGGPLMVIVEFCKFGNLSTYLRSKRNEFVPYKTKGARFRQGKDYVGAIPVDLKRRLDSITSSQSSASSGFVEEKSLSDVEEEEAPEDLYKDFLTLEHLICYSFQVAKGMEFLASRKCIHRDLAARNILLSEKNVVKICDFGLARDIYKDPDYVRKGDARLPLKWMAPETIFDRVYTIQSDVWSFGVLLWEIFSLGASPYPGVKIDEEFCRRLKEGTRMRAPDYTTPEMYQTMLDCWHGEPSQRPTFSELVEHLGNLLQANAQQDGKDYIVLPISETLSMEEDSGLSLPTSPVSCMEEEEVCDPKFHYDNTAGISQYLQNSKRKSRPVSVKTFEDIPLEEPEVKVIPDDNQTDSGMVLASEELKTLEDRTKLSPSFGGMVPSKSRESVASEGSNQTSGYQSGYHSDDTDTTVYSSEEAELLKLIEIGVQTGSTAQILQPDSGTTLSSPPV
Sequence of Insulin-like growth factor 1 receptor (Homo sapiens) (P08069 31-736 limits assumed): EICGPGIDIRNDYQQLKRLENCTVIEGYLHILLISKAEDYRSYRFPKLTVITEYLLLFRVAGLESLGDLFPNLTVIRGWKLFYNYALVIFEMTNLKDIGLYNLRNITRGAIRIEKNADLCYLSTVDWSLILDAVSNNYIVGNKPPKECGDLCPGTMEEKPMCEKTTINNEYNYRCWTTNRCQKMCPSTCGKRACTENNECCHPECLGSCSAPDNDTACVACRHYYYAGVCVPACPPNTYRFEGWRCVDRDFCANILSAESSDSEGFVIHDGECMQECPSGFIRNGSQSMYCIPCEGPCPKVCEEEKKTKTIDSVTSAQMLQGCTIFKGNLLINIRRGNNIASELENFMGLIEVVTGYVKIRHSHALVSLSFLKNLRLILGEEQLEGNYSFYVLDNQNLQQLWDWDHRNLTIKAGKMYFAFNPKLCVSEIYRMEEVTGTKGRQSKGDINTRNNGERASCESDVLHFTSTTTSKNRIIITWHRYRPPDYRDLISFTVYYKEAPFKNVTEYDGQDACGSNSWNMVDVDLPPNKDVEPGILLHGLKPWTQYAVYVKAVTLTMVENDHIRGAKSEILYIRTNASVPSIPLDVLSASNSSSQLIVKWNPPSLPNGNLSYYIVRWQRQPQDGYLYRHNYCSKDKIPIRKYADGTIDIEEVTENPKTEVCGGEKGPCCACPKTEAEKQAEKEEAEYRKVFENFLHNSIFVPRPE
Sequence of Insulin-like growth factor 1 receptor (Homo sapiens) (P08069 741-1367 limits assumed): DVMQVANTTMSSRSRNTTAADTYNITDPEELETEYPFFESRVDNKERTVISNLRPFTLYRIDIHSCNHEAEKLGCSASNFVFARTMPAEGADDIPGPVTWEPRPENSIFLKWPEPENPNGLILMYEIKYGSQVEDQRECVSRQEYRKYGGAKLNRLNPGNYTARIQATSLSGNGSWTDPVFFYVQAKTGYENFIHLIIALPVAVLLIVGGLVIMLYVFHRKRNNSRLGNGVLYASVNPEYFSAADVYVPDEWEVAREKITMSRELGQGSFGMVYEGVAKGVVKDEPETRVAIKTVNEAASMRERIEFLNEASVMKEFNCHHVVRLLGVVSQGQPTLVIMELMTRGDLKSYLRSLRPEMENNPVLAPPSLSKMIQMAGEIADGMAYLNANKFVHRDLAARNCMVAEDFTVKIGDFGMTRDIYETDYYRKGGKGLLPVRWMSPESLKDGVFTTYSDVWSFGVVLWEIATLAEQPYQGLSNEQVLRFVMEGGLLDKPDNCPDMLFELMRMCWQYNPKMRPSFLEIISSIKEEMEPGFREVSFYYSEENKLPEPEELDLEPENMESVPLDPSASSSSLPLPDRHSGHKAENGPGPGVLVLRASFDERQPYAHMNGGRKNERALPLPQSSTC
Sequence of Fibroblast growth factor receptor 1 (Homo sapiens) (P11362 22-822 limits assumed): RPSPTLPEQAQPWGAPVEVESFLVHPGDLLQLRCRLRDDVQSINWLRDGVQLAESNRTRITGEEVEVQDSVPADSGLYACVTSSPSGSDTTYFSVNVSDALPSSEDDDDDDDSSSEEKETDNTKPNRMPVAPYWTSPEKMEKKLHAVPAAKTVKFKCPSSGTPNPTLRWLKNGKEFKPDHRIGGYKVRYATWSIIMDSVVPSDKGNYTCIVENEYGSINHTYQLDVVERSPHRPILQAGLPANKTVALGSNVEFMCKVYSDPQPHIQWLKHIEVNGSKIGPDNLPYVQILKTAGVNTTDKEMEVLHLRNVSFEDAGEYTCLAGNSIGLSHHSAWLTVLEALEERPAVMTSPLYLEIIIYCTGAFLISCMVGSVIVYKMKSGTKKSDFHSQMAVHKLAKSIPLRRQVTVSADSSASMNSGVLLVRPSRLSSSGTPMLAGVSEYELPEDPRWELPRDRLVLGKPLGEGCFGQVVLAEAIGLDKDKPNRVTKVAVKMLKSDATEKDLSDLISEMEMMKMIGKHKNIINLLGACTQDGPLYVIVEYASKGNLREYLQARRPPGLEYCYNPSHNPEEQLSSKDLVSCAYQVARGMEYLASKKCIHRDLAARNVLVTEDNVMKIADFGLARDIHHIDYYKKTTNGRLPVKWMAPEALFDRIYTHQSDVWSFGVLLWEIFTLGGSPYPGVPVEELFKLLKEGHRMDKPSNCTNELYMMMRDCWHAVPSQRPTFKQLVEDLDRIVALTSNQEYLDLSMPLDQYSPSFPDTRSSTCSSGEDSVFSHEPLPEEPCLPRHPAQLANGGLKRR
Sequence of Cyclin-dependent kinase 5 (Homo sapiens) (Q00535 whole entry, looked up): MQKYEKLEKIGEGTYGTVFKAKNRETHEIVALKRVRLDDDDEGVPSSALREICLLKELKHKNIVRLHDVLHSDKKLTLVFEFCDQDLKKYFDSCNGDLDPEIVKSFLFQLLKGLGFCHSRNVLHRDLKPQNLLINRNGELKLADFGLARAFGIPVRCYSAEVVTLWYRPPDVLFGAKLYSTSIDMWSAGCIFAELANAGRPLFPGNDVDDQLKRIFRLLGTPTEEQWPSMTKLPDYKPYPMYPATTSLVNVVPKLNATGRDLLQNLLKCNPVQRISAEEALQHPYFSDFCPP
Sequence of Glycogen synthase kinase-3 beta (Homo sapiens) (P49841 whole entry, looked up): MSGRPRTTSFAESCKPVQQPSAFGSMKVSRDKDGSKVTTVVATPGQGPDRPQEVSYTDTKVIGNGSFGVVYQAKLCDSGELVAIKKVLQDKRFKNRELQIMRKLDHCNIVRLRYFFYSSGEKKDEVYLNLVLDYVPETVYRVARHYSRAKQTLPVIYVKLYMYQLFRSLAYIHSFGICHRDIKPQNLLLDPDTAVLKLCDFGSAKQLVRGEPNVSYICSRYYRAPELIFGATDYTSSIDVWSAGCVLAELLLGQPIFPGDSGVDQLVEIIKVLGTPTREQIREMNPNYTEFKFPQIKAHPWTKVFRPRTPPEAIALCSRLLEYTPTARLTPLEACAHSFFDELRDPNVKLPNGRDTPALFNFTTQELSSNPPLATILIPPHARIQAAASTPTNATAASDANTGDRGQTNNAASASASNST

| SMILES | Activity [1] [%] | Activity [2] [%] | IC50 [3] [nM] | Activity [4] [%] | Percent inhibition [5] [%] | Activity [6] [%] | Percent inhibition [7] [%] | solubility [8] [mM] | Activity [9] [%] | IC50 [10] [nM] | Activity [11] [%] | Activity [12] [%] | Activity [13] [%] | Activity [14] [%] | Activity [15] [%] | Activity [16] [%] | IC50 [17] [nM] |
| --- | --- | --- | --- | --- | --- | --- | --- | --- | --- | --- | --- | --- | --- | --- | --- | --- | --- |
| CC(C)c1ccc(Nc2nnc(-c3c(NCc4ccncc4)ncn3C)o2)cc1 | < 30 | < 30 | 1150 | < 30 | < 30 | < 30 | < 30 |  | < 30 | 440 | < 30 | < 30 | < 30 | < 30 | < 30 | < 30 | 770 |
| Cn1cnc(NCCc2ccc3c(c2)OCO3)c1-c1nnc(Nc2ccc(Cl)cc2)o1 | < 30 | < 30 | > 10000 | < 30 | < 30 | < 30 | < 30 |  | < 30 | 960 | < 30 | < 30 | < 30 | < 30 | < 30 | < 30 | 1470 |
| Cn1cnc(NCc2ccc3[nH]ncc3c2)c1-c1nnc(Nc2ccc(Cl)cc2)o1 | < 30 | < 30 | > 10000 | < 30 | < 30 | < 30 | < 30 |  | < 30 | 2370 | < 30 | < 30 | < 30 | < 30 | < 30 | < 30 | > 10000 |
| Cc1ccc(Nc2nnc(-c3c(NCc4ccncc4)ncn3C)o2)c(F)c1 | < 30 | < 30 | 640 | < 30 | < 30 | < 30 | < 30 |  | < 30 | 260 | < 30 | < 30 | < 30 | < 30 | < 30 | < 30 | 590 |
| Cn1cnc(NCc2ccc(F)c(F)c2)c1-c1nnc(Nc2ccc(Cl)cc2)o1 | < 30 | < 30 | 5650 | < 30 | < 30 | < 30 | < 30 |  | < 30 | 1860 | < 30 | < 30 | < 30 | < 30 | < 30 | < 30 | 3310 |

The next compounds have a lower IC50 [3] than those just listed; values first:

| Activity [1] [%] | Activity [2] [%] | IC50 [3] [nM] | Activity [4] [%] | Percent inhibition [5] [%] | Activity [6] [%] | Percent inhibition [7] [%] | solubility [8] [mM] | Activity [9] [%] | IC50 [10] [nM] | Activity [11] [%] | Activity [12] [%] | Activity [13] [%] | Activity [14] [%] | Activity [15] [%] | Activity [16] [%] | IC50 [17] [nM] | SMILES |
| --- | --- | --- | --- | --- | --- | --- | --- | --- | --- | --- | --- | --- | --- | --- | --- | --- | --- |
| < 30 | < 30 | 260 | < 30 | < 30 | < 30 | < 30 |  | < 30 | 180 | < 30 | < 30 | < 30 | < 30 | < 30 | < 30 | 490 | Cn1cnc(NCc2ccncc2)c1-c1nnc(Nc2ccc(Cl)c(Cl)c2)o1 |
| < 30 | < 30 | 100 | < 30 | < 30 | < 30 | < 30 |  | < 30 | 43 | < 30 | < 30 | < 30 | < 30 | < 30 | < 30 | 510 | Cn1cnc(NCc2ccncc2)c1-c1nnc(Nc2ccc(Cl)c(C(F)(F)F)c2)o1 |
| < 30 | < 30 | 96 | < 30 | < 30 | < 30 | < 30 | > 5 | < 30 | 130 | < 30 | < 30 | < 30 | < 30 | < 30 | < 30 | 460 | Cn1cnc(NCc2ccncc2)c1-c1nnc(Nc2ccc(OC(F)(F)Cl)cc2)o1 |
| < 30 | < 30 | 93 | < 30 | < 30 | < 30 | < 30 | > 5 | < 30 | 52 | < 30 | < 30 | < 30 | < 30 | < 30 | < 30 | 590 | COc1ccc(Nc2nnc(-c3c(NCc4ccncc4)ncn3C)o2)cc1OC |
| < 30 | < 30 | 82 | < 30 | < 30 | < 30 | < 30 | > 5 | < 30 | 73 | < 30 | < 30 | < 30 | < 30 | < 30 | < 30 | 120 | Cn1cnc(NCc2ccncc2)c1-c1nnc(Nc2ccc(C(F)(F)F)cc2)o1 |
| < 30 | < 30 | 66 | < 30 | < 30 | < 30 | < 30 | > 5 | < 30 | 93 | < 30 | < 30 | < 30 | < 30 | < 30 | < 30 | 160 | Cn1cnc(NCc2ccncc2)c1-c1nnc(Nc2ccc(OC(F)(F)F)cc2)o1 |
| < 30 | < 30 | 64 | < 30 | < 30 | < 30 | < 30 | > 5 | < 30 | 130 | < 30 | < 30 | < 30 | < 30 | < 30 | < 30 | 670 | COc1cccc(Nc2nnc(-c3c(NCc4ccncc4)ncn3C)o2)c1 |
